From patent publication US9650361B2, “N-(pyridin-2-yl)pyrimidin-4-amine derivatives containing a sulfoximine group” (BAYER PHARAM AKTIENGESELLSCHAFT, priority 2012, dated 2017)
Where two headings read alike, the source gives them in different places.

Columns and labels:
[1] = test system: A2780 cells; assay: Proliferation assay, A2780 (Method 3); format: cell-based, human; details: 4 days, crystal violet, read-out: Inhibition of A2780 cell proliferation IC50
Experimental: Cultivated tumour cells (HeLa, human cervical tumour cells, ATCC CCL-2; NCI-H460, human non-small cell lung carcinoma cells, ATCC HTB-177; A2780, human ovarian carcinoma cells, ECACC #93112519; DU 145, hormone-independent human prostate carcinoma cells, ATCC HTB-81; HeLa-MaTu-ADR, multidrug-resistant human cervical carcinoma cells, EPO-GmbH Berlin; Caco-2, human colorectal carcinoma cells, ATCC HTB-37; B16F10, mouse melanoma cells, ATCC CRL-6475) were plated at a density of 5,000 cells/well (DU145, HeLa-MaTu-ADR), 3,000 cells/well (NCI-H460, HeLa), 2,500 cells/well (A2780), 1,500 cells/well (Caco-2), or 1,000 cells/well (B16F10) in a 96-well multititer plate in 200 μL of their respective growth medium supplemented 10% fetal calf serum. After 24 hours, the cells of one plate (zero-point plate) were stained with crystal violet (see below), while the medium of the other plates was replaced by fresh culture medium (200 μl), to which the test substances were added in various concentrations (0 μM, as well as in the range of 0.001-10 μM; the final concentration of the solvent dimethyl sulfoxide was 0.5%). The cells were incubated for 4 days in the presence of test substances. Cell proliferation was determined by staining the cells with crystal violet: the cells were fixed by adding 20 μl/measuring point of an 11% glutaric aldehyde solution for 15 minutes at room temperature. After three washing cycles of the fixed cells with water, the plates were dried at room temperature. The cells were stained by adding 100 μl/measuring point of a 0.1% crystal violet solution (pH 3.0). After three washing cycles of the stained cells with water, the plates were dried at room temperature. The dye was dissolved by adding 100 μl/measuring point of a 10% acetic acid solution. The extinction was determined by photometry at a wavelength of 595 nm. The change of cell number, in percent, was calculated by normalization of the measured values to the extinction values of the zero-point plate (=0%) and the extinction of the untreated (0 μm) cells (=100%). The IC50 values (inhibitory concentration at 50% of maximal effect) were determined by means of a 4 parameter fit.

[2] = molecular target: T1, CDK9/CycT1 (Homo sapiens, UniProt P50750); assay: CDK9/CycT1 kinase assay (Method 1a); format: biochemical; details: 10 μM ATP
T1 construct: Recombinant full-length His-tagged human CDK9 and CycT1; His; purchased Invitrogen PV4131; host or cells: insect cells
From the text: 1a. CDK9/CycT1 Kinase Assay:
CDK9/CycT1-inhibitory activity of compounds of the present invention was quantified employing the CDK9/CycT1 TR-FRET assay as described in the following paragraphs:
Recombinant full-length His-tagged human CDK9 and CycT1, expressed in insect cells and purified by Ni-NTA affinity chromatography, were purchased from Invitrogen (Cat. No PV4131). As substrate for the kinase reaction biotinylated peptide biotin-Ttds-YISPLKSPYKISEG (C-terminus in amid form) was used which can be purchased e.g. form the company JERINI Peptide Technologies (Berlin, Germany) For the assay 50 nl of a 100 fold concentrated solution of the test compound in DMSO was pipetted into a black low volume 384 well microtiter plate (Greiner Bio-One, Frickenhausen, Germany), 2 μl of a solution of CDK9/CycT1 in aqueous assay buffer [50 mM Tris/HCl pH 8.0, 10 mM MgCl2, 1.0 mM dithiothreitol, 0.1 mM sodium ortho-vanadate, 0.01% (v/v) Nonidet-P40 (Sigma)] were added and the mixture was incubated for 15 min at 22° C. to allow pre-binding of the test compounds to the enzyme before the start of the kinase reaction. Then the kinase reaction was started by the addition of 3 μl of a solution of adenosine-tri-phosphate (ATP, 16.7 μM=>final conc. in the 5 μl assay volume is 10 μM) and substrate (1.67 μM=>final conc. in the 5 μl assay volume is 1 μM) in assay buffer and the resulting mixture was incubated for a reaction time of 25 min at 22° C. The concentration of CDK9/CycT1 was adjusted depending of the activity of the enzyme lot and was chosen appropriate to have the assay in the linear range, typical concentrations were in the range of 1 μg/ml. The reaction was stopped by the addition of 5 μl of a solution of TR-FRET detection reagents (0.2 μM streptavidine-XL665 [Cisbio Bioassays, Codolet, France] and 1 nM anti-RB(pSer807/pSer811)-antibody from BD Pharmingen [#558389] and 1.2 nM LANCE EU-W1024 labeled anti-mouse IgG antibody [Perkin-Elmer, product no. AD0077]) in an aqueous EDTA-solution (100 mM EDTA, 0.2% (w/v) bovine serum albumin in 100 mM HEPES/NaOH pH 7.0).
The resulting mixture was incubated 1 h at 22° C. to allow the formation of complex between the phosphorylated biotinylated peptide and the detection reagents. Subsequently the amount of phosphorylated substrate was evaluated by measurement of the resonance energy transfer from the Eu-chelate to the streptavidine-XL. Therefore, the fluorescence emissions at 620 nm and 665 nm after excitation at 350 nm was measured in a HTRF reader, e.g. a Rubystar (BMG Labtechnologies, Offenburg, Germany) or a Viewlux (Perkin-Elmer). The ratio of the emissions at 665 nm and at […] was taken as the measure for the amount of phosphorylated substrate. The data were normalised (enzyme reaction without inhibitor=0% inhibition, all other assay components but no enzyme=100% inhibition).

T1 sequence (P50750 whole entry): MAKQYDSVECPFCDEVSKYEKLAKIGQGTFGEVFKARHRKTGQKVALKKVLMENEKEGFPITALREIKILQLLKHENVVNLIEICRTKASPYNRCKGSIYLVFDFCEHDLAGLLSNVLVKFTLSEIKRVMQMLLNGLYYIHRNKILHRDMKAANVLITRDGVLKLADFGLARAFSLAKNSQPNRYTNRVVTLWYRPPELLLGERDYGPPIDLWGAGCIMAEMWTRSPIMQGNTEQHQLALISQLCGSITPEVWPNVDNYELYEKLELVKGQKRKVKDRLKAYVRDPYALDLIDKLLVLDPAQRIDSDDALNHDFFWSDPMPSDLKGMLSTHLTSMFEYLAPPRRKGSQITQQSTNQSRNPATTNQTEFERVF
T1 sequence (O60563 whole entry partner): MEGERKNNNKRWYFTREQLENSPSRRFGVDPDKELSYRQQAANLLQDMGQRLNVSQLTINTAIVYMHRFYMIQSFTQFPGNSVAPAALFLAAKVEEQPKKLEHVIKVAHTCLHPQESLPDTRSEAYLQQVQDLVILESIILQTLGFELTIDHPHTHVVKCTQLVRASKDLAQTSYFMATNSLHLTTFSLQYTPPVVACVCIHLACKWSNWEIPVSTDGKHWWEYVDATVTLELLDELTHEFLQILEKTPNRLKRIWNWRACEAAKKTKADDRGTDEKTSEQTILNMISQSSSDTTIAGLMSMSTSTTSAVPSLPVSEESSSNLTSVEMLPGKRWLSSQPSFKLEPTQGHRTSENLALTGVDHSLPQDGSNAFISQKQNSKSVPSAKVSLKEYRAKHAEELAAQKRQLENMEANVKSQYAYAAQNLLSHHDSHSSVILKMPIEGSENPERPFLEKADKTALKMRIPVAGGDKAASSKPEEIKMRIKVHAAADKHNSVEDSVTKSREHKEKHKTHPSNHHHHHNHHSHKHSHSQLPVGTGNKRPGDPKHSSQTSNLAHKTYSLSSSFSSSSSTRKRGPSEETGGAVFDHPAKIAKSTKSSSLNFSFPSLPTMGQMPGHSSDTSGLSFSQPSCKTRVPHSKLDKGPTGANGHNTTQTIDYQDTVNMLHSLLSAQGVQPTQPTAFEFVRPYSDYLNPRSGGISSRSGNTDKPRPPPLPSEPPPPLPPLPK

| SMILES | IC50 ([1]; Homo sapiens, A2780, 96 h) | IC50 [2] | IC50 [1] |
| --- | --- | --- | --- |
| COc1cc(F)ccc1-c1cc(Nc2cc(CS(C)(=N)=O)ccn2)ncn1 (racemic) [Example 1, (rac)-6-(4-Fluoro-2-methoxyphenyl)-N-{4-[(S-methylsulfonimidoyl)methyl]pyridin-2-yl}pyrimidin-4-amine] | 60 nM | 5 nM | – |
| COc1cc(F)ccc1-c1cc(Nc2cc(CS(C)(=N)=O)cc(Cl)n2)ncn1 (racemic) [Example 4, (rac)-N-{6-Chloro-4-[(S-methylsulfonimidoyl)methyl]pyridin-2-yl}-6-(4-fluoro-2-methoxyphenyl)pyrimidin-4-amine] | 62 nM | 4 nM | – |
| COc1cc(F)ccc1-c1cc(Nc2cc(CS(C)(=N)=O)cc(C(F)(F)F)n2)ncn1 (racemic) [Example 10, (rac)-6-(4-Fluoro-2-methoxyphenyl)-N-{4-[(S-methylsulfonimidoyl)methyl]-6-(trifluoromethyl)pyridin-2-yl}pyrimidin-4-amine] | 32 nM | 5 nM | – |
| COc1cc(F)ccc1-c1cc(Nc2cc(CS(C)(=N)=O)ccn2)ncn1 (single isomer, unassigned) [Example 2, 6-(4-Fluoro-2-methoxyphenyl)-N-{4-[(S-methylsulfonimidoyl)methyl]pyridin-2-yl}pyrimidin-4-amine] | 193 nM | 9 nM | – |
| COc1cc(F)ccc1-c1cc(Nc2cc(CS(C)(=N)=O)ccn2)ncn1 (single isomer, unassigned) [Example 3, 6-(4-Fluoro-2-methoxyphenyl)-N-{4-[(S-methylsulfonimidoyl)methyl]pyridin-2-yl}pyrimidin-4-amine] | – | 4 nM | 126 nM |
| COc1cc(F)ccc1-c1cc(Nc2cc(CS(C)(=N)=O)cc(Cl)n2)ncn1 (single isomer, unassigned) [Example 5, N-{6-Chloro-4-[(S-methylsulfonimidoyl)methyl]pyridin-2-yl}-6-(4-fluoro-2-methoxyphenyl)pyrimidin-4-amine] | 34 nM | 5 nM | – |

Results, then the compound that gave them:

| IC50 ([1]; Homo sapiens, A2780, 96 h) | IC50 [2] | IC50 [1] | SMILES |
| --- | --- | --- | --- |
| 35 nM | 5 nM | – | COc1cc(F)ccc1-c1cc(Nc2cc(CS(C)(=N)=O)cc(C)n2)ncn1 (racemic) [Example 7, (rac)-6-(4-Fluoro-2-methoxyphenyl)-N-{6-methyl-4-[(S-methylsulfonimidoyl)methyl]pyridin-2-yl}pyrimidin-4-amine] |
| – | 4 nM | 39 nM | COc1cc(F)ccc1-c1cc(Nc2cc(CS(C)(=N)=O)cc(Cl)n2)ncn1 (single isomer, unassigned) [Example 6, N-{6-Chloro-4-[(S-methylsulfonimidoyl)methyl]pyridin-2-yl}-6-(4-fluoro-2-methoxyphenyl)pyrimidin-4-amine] |
| 36 nM | 4 nM | – | COc1cc(F)ccc1-c1cc(Nc2cc(CS(C)(=N)=O)cc(C)n2)ncn1 (single isomer, unassigned) [Example 8, 6-(4-Fluoro-2-methoxyphenyl)-N-{6-methyl-4-[(S-methylsulfonimidoyl)methyl]pyridin-2-yl}pyrimidin-4-amine] |
| – | 4 nM | 39 nM | COc1cc(F)ccc1-c1cc(Nc2cc(CS(C)(=N)=O)cc(C)n2)ncn1 (single isomer, unassigned) [Example 9, 6-(4-Fluoro-2-methoxyphenyl)-N-{6-methyl-4-[(S-methylsulfonimidoyl)methyl]pyridin-2-yl}pyrimidin-4-amine] |
